The test deals with sexual desensitization of male subjects. Description: Desensitization effect scored by male subjects after rubbing the mixture on the genital organs and manual stimulation. The settings on record: for Mean desensitization effect: scale of 1-10, mean of 5 subjects. The test is classed as in vivo, human. The procedure:
In a trial which was conducted on 5 healthy, sexually active male subjects the following formulations were tested: Benzyl alcohol in concentrations: 1%, 3%, 5%, 7% and 10%. Each of the concentrations was tested in the following vehicles: aqueous alcoholic solution, gel, ointment and cream. For each formulation the participants were requested to rub the mixture on their genital organs until complete skin absorption and then wait for the full effect for 5 minutes. After the waiting period the participants were requested to perform manual stimulation of their genital organs and describe the desensitization effect of the mixture in a scale of 1-10.
In another trial, menthol was added to the mixture and the same procedure that was described earlier was applied to assess the effect of menthol addition.

The structures appear in SMILES notation.

Regarding `OCc1ccccc1` [Benzyl alcohol], the “Desensitization effect (in words)” value (each of the benzyl alcohol concentrations tested (1-10%)) is listed as “effective as a desensitizer”. Moreover, the “Optimal concentration of benzyl alcohol” value (found in the applicant's tests) came to 5%. In addition, the Mean desensitization effect amounted to 3.2 (aqueous alcoholic solution (1:1 water ethanol mixture), benzyl alcohol 1%, 5 min wait); 4.6 (aqueous alcoholic solution (1:1 water ethanol mixture), benzyl alcohol 3%); 6.2 (aqueous alcoholic solution (1:1 water ethanol mixture), benzyl alcohol 5%); 7.6 (aqueous alcoholic solution (1:1 water ethanol mixture), benzyl alcohol 7%); 8.0 (aqueous alcoholic solution (1:1 water ethanol mixture), benzyl alcohol 10%); 2.8 (aqueous gel (1% hydroxyethylcellulose gel), benzyl alcohol 1%). Also, the Mean desensitization effect runs as follows: (aqueous gel (1% hydroxyethylcellulose gel), benzyl alcohol 3%) 4.2; (aqueous gel (1% hydroxyethylcellulose gel), benzyl alcohol 5%) 5.6; (aqueous gel (1% hydroxyethylcellulose gel), benzyl alcohol 7%) 6.6; (aqueous gel (1% hydroxyethylcellulose gel), benzyl alcohol 10%) 7.4; (cream, benzyl alcohol 1%) 2.4; (cream, benzyl alcohol 3%) 3.6. Besides, the Mean desensitization effect turned out to be 5.2 (cream, benzyl alcohol 5%); 6.2 (cream, benzyl alcohol 7%); 6.8 (cream, benzyl alcohol 10%); 2.0 (ointment, benzyl alcohol 1%); 3.2 (ointment, benzyl alcohol 3%); 4.8 (ointment, benzyl alcohol 5%). Further, the Mean desensitization effect runs as follows: (ointment, benzyl alcohol 7%) 5.8; (ointment, benzyl alcohol 10%) 6.2.

Turning to `CC1CCC(C(C)C)C(O)C1` (stereo not drawn) [menthol, Menthol], the “Desensitization effect (in words)” value by setting is: (menthol combined with benzyl alcohol gel, compared with the same concentration of benzyl alcohol alone) “dramatic effect”; (sole use of menthol in 1% Hydroxyethylcellulose gel) “did not create a substantial desensitization effect”.

The values are drawn from US20110245349A1, “BENZYL ALCOHOL MIXTURE FOR TREATING PREMATURE EJACULATION” (PANAXIA LTD., priority 2010, published 2011).
